According to the NIST ThermoML archive (doi:10.1016/j.jct.2012.02.015):
± gives the expanded uncertainty stated by the source.

Conditions: 101.33 kPa, Liquid, Alternating current cell with electrodes

| SMILES | electrical conductivity (1131 K) | electrical conductivity (1136 K) | electrical conductivity (1151 K) | electrical conductivity (1169 K) | electrical conductivity (1173 K) | electrical conductivity (1184 K) | electrical conductivity (1190 K) | electrical conductivity (1194 K) | electrical conductivity (1198 K) | electrical conductivity (1206 K) | electrical conductivity (1210 K) | electrical conductivity (1217 K) | electrical conductivity (1221 K) | electrical conductivity (1229 K) | electrical conductivity (1232 K) | electrical conductivity (1233 K) | electrical conductivity (1237 K) | electrical conductivity (1244 K) | electrical conductivity (1245 K) | electrical conductivity (1269 K) | other results |
| --- | --- | --- | --- | --- | --- | --- | --- | --- | --- | --- | --- | --- | --- | --- | --- | --- | --- | --- | --- | --- | --- |
| [F-].[Li+] [lithium fluoride] | 855 ± 9 S/m | 858 ± 9 S/m | 868 ± 9 S/m | 877 ± 9 S/m | 880 ± 9 S/m | 886 ± 9 S/m | 888 ± 9 S/m | 890 ± 9 S/m | 892 ± 9 S/m | 896 ± 9 S/m | 897 ± 9 S/m | 900 ± 9 S/m | 899 ± 9 S/m | 905 ± 9 S/m | 907 ± 9 S/m | 907 ± 9 S/m | 908 ± 9 S/m | 911 ± 9 S/m | 911 ± 9 S/m | 918 ± 9 S/m | electrical conductivity (1258 K): 916 ± 9 S/m; electrical conductivity (1267 K): 918 ± 9 S/m; electrical conductivity (1283 K): 923 ± 9 S/m |
| [Br-].[K+] [potassium bromide] | 190 ± 2 S/m | 191 ± 2 S/m | 194 ± 2 S/m | 196 ± 2 S/m |  |  | 200 ± 2 S/m |  | 201 ± 2 S/m |  | 202 ± 2 S/m |  | 203 ± 2 S/m | 204 ± 2 S/m |  | 204 ± 2 S/m | 205 ± 2 S/m |  | 205 ± 2 S/m |  |  |
| [I-].[K+] [potassium iodide] |  |  |  |  |  |  |  |  |  |  |  |  |  |  |  |  |  |  |  | 167 ± 2 S/m | electrical conductivity (1109 K): 158 ± 2 S/m; electrical conductivity (1126 K): 160 ± 2 S/m; electrical conductivity (1143 K): 161 ± 2 S/m; electrical conductivity (1152 K): 163 ± 2 S/m; electrical conductivity (1160 K): 164 ± 2 S/m; electrical conductivity (1170 K): 165 ± 2 S/m; electrical conductivity (1176 K): 165 ± 2 S/m; electrical conductivity (1186 K): 166 ± 2 S/m; electrical conductivity (1203 K): 166 ± 2 S/m; electrical conductivity (1225 K): 167 ± 2 S/m; electrical conductivity (1236 K): 167 ± 2 S/m; electrical conductivity (1246 K): 168 ± 2 S/m; electrical conductivity (1252 K): 167 ± 2 S/m |
| [Br-].[Rb+] [rubidium bromide] |  |  |  |  | 151 ± 2 S/m | 152 ± 2 S/m |  | 153 ± 2 S/m |  | 154 ± 2 S/m |  | 154 ± 2 S/m |  |  | 155 ± 2 S/m |  |  | 156 ± 2 S/m |  | 157 ± 2 S/m | electrical conductivity (1258 K): 157 ± 2 S/m |
| [I-].[Rb+] [rubidium iodide (RbI)] |  |  |  |  |  |  |  |  | 127 ± 1 S/m |  | 128 ± 1 S/m |  |  |  |  | 130 ± 1 S/m |  |  |  |  | electrical conductivity (1126 K): 120 ± 1 S/m; electrical conductivity (1154 K): 122 ± 1 S/m; electrical conductivity (1166 K): 124 ± 1 S/m; electrical conductivity (1188 K): 126 ± 1 S/m; electrical conductivity (1216 K): 128 ± 1 S/m; electrical conductivity (1248 K): 132 ± 1 S/m; electrical conductivity (1260 K): 133 ± 1 S/m; electrical conductivity (1266 K): 133 ± 1 S/m; electrical conductivity (1297 K): 135 ± 1 S/m; electrical conductivity (1309 K): 136 ± 1 S/m |
